We go through one compound from patent publication US6919330B2, “Formulations of drugs” (Laxdale Limited, priority 2002, dated 2005).

A short description of the data set: Plasma and red cell selenium levels in healthy controls and patient groups on drugs. It counts as in vivo, human. The settings on record: schizophrenic patients on the drug, compared with the other groups. An excerpt:
Here the selenium levels are expressed in μmol/litre and are shown as means plus or minus the Standard Error of the Mean (SEM)

The structures appear in SMILES notation.

On to `CN1CCN(C2=Nc3cc(Cl)ccc3Nc3ccccc32)CC1` [clozapine], for which the selenium levels result is recorded as “exceptionally low”.
